Measurements: PMC7413254 (Nature Communications, 2020)

Legend:
PfCRT^3D7 = PfCRT^3D7 (Plasmodium falciparum, UniProt Q8IBZ9); assay: cell-based; type: cell-based; conditions: for Trans-stimulation data: PfCRT-mediated [3H]CQ transport: 2nd of 6 trans-stimulation columns, footnote b: due to solubility the highest intracellular concentration tested was 30 mM, normalised to the oocyte type control = 100; for Trans-stimulation data: total [3H]CQ transport / Total [3H]CQ transport, trans-stimulation by injected solute: PfCRT3D7 oocytes; for Trans-stimulation data: total [3H]CQ transport / Trans-stimulation: total [3H]CQ transport, PfCRT3D7 oocytes / Total [3H]CQ transport, trans-stimulation by injected solute: footnote b: highest intracellular concentration tested was 30 mM (solubility); for Trans-stimulation data: total [3H]CQ transport: normalised to the oocyte type control (control = 100); for Trans-stimulation: total [3H]CQ transport, PfCRT3D7 oocytes: mean ± SEM, SEM
Procedure, shortened: (§1)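 Transport measured in Xenopus oocytes expressing the transporters, 1.5 h at 27.5 °C in ND96 pH 5.5 unless noted. For trans-stimulation, VF-6 injected in 25 nL ND96 at pH 5.0–7.0 or Na^+-free (choline) buffer; intracellular levels based on ~400 nL oocyte volume. Ten oocytes per treatment, ≥4 experiments.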

PfNT1 = target: T1, PfNT1 (Plasmodium falciparum, UniProt Q8IDM6); assay: cell-based; type: cell-based; conditions: footnote b: highest intracellular concentration tested was 30 mM (solubility); for Trans-stimulation data: total [3H]CQ transport / Total [3H]CQ transport, trans-stimulation by injected solute: PfNT1 oocytes; for Trans-stimulation data: total [3H]CQ transport: normalised to the oocyte type control (control = 100); for Trans-stimulation: total [3H]CQ transport, PfNT1 oocytes: mean ± SEM, SEM
T1 construct: expressed in transfected cells; host or cells: Xenopus laevis oocytes (stage V-VI), cRNA-injected
Procedure, shortened: as §1

PfCRT^Ecu1110 = PfCRT^Ecu1110 (Plasmodium falciparum, UniProt Q9N623, A220S/I356L/K76T/N326D); assay: cell-based; type: cell-based; conditions: for Trans-stimulation data: total [3H]CQ transport / Total [3H]CQ transport, trans-stimulation by injected solute: PfCRTEcu1110 oocytes; for Trans-stimulation data: total [3H]CQ transport / Trans-stimulation: total [3H]CQ transport, PfCRTEcu1110 oocytes / Total [3H]CQ transport, trans-stimulation by injected solute: footnote b: highest intracellular concentration tested was 30 mM (solubility); for Trans-stimulation data: total [3H]CQ transport: normalised to the oocyte type control (control = 100); for Trans-stimulation: total [3H]CQ transport, PfCRTEcu1110 oocytes: mean ± SEM, SEM; for Trans-stimulation data: PfCRT-mediated [3H]CQ transport: footnote b: due to solubility the highest intracellular concentration tested was 30 mM, normalised to the oocyte type control = 100
Procedure, shortened: as §1

PfCRT^Dd2 = PfCRT^Dd2 (Plasmodium falciparum, UniProt Q9N623, A220S/I356T/K76T/M74I/N326S/N75E/Q271E/R371I); assay: cell-based; type: cell-based; conditions: for Trans-stimulation data: total [3H]CQ transport / Total [3H]CQ transport, trans-stimulation by injected solute: PfCRTDd2 oocytes; for Trans-stimulation data: total [3H]CQ transport / Trans-stimulation: total [3H]CQ transport, PfCRTDd2 oocytes / Total [3H]CQ transport, trans-stimulation by injected solute: footnote b: highest intracellular concentration tested was 30 mM (solubility); for Trans-stimulation data: total [3H]CQ transport: normalised to the oocyte type control (control = 100); for PfCRT-mediated [3H]CQ transport, trans-stimulation by injected solute, PfCRTDd2 / Trans-stimulation data: PfCRT-mediated [3H]CQ transport: footnote b: due to solubility the highest intracellular concentration tested was 30 mM; for PfCRT-mediated [3H]CQ transport, trans-stimulation by injected solute, PfCRTDd2: background subtracted; for Trans-stimulation: total [3H]CQ transport, PfCRTDd2 oocytes: mean ± SEM, SEM; for Trans-stimulation data: PfCRT-mediated [3H]CQ transport: normalised to the oocyte type control = 100
Procedure, shortened: as §1

non-expressing oocytes = type: cell-based, Xenopus laevis; conditions: footnote b: highest intracellular concentration tested was 30 mM (solubility); for Trans-stimulation: total [3H]CQ transport, non-expressing oocytes: mean ± SEM, SEM; for Trans-stimulation data: total [3H]CQ transport / Total [3H]CQ transport, trans-stimulation by injected solute: non-expressing oocytes; for Trans-stimulation data: total [3H]CQ transport: normalised to the oocyte type control (control = 100)
Protocol: Unless specified otherwise, the transport assays were conducted over 1.5 h at 27.5 °C and the reaction buffer was ND96 (96 mM NaCl, 2 mM KCl, 1 mM MgCl2, 1.8 mM CaCl2, 10 mM MES and 10 mM Tris-base) at pH 5.5.
The intracellular concentrations were calculated using previous estimates of the volume of stage V–VI oocytes (~400 nL[60]). […] The oocytes were injected with VF-6 suspended in 25 nL ND96 buffer adjusted to pH 5.0, 5.5, 6.0 or 7.0, which corresponded to the injection of 2.5–250 fmol of H^+. The Na^+-dependence of the trans-stimulatory effect of VF-6 was assessed by injecting the oocytes with VF-6 suspended in ND96 buffer (pH 5.5) or a Na^+-free version of this buffer (the Na^+ was replaced with choline).
At least four independent experiments were performed (on different days and using oocytes from different frogs), and within each experiment measurements were made from ten oocytes per treatment.

Sequence of PfCRT^Ecu1110 (Q9N623 whole entry A220S/I356L/K76T/N326D): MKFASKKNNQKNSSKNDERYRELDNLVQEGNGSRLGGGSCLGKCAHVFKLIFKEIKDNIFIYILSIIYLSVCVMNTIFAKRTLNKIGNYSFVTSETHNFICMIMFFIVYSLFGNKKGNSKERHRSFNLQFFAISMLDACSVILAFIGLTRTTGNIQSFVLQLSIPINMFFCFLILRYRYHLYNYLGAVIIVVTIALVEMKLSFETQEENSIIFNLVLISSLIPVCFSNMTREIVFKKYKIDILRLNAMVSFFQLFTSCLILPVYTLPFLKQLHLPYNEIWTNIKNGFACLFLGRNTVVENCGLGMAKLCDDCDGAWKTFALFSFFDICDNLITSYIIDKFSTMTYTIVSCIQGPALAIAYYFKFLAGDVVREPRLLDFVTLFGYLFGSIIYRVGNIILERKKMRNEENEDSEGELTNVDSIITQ
Sequence of PfCRT^3D7 (Q8IBZ9 59-398): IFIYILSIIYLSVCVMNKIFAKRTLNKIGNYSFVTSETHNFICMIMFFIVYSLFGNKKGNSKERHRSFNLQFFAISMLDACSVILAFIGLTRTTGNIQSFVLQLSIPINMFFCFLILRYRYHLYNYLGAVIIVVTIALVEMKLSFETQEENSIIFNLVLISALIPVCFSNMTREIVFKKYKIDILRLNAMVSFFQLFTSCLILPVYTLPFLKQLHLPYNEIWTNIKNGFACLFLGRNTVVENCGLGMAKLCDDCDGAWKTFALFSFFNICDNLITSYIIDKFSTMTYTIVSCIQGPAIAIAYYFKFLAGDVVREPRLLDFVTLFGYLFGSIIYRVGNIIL
T1 sequence (Q8IDM6 whole entry): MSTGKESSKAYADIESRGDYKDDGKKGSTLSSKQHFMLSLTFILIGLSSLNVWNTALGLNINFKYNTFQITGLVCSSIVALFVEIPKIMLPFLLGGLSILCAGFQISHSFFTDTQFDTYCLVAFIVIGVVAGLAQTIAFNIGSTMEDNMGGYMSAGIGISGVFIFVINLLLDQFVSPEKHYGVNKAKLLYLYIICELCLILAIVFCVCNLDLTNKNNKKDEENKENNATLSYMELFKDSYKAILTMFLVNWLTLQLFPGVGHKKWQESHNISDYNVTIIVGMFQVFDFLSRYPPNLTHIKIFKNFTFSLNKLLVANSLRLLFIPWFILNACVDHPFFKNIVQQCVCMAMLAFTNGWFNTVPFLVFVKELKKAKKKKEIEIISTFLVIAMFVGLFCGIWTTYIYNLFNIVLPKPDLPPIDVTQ
Sequence of PfCRT^Dd2 (Q9N623 whole entry A220S/I356T/K76T/M74I/N326S/N75E/Q271E/R371I): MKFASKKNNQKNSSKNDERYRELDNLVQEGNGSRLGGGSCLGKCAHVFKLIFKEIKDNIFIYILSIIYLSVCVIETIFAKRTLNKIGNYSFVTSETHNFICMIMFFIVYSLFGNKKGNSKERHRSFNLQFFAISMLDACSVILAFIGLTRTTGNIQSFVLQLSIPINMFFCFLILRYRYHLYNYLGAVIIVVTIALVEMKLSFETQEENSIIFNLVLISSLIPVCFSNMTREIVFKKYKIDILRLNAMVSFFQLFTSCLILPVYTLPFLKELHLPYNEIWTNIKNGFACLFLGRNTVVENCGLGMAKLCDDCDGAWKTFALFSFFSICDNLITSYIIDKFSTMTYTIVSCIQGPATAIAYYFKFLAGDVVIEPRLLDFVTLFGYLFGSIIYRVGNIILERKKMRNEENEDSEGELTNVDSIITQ

VEPSDTIENVK [VK-11] was tested, and the “Trans-stimulation data: PfCRT-mediated [3H]CQ transport” value (from here on “Trans-stimulation data: PfCRT-mediated”) (PfCRT^3D7) was 158 ± 1.9b, the “Trans-stimulation data: total [3H]CQ transport” value (shortened to “Trans-stimulation data: total”) (PfCRT^3D7) was 163 ± 3.2b and the “Trans-stimulation: total [3H]CQ transport, PfCRT3D7 oocytes” value (PfCRT^3D7) was 15 ± 0.3b % of PfCRTDd2 control. For the same sequence, the “Trans-stimulation data: total” value (PfNT1) was 98 ± 3.3b, the “Trans-stimulation: total [3H]CQ transport, PfNT1 oocytes” value (PfNT1) was 2.7 ± 0.03b % of PfCRTDd2 control and the “Trans-stimulation data: total” value (PfCRT^Ecu1110) was 131 ± 2.1b. The “Trans-stimulation: total [3H]CQ transport, PfCRTEcu1110 oocytes” value (PfCRT^Ecu1110) was 42 ± 2.1b % of PfCRTDd2 control, the “Trans-stimulation data: PfCRT-mediated” value (PfCRT^Ecu1110) was 127 ± 1.9b and the “Trans-stimulation data: total” value (PfCRT^Dd2) was 98 ± 3.8b. For the same sequence, the “PfCRT-mediated [3H]CQ transport, trans-stimulation by injected solute, PfCRTDd2” value (“PfCRT-mediated [3H]CQ transport … PfCRTDd2” for short) (PfCRT^Dd2) was 96 ± 2.1b % of PfCRTDd2 control, the “Trans-stimulation: total [3H]CQ transport, PfCRTDd2 oocytes” value (PfCRT^Dd2) was 98 ± 3.8b % of PfCRTDd2 control and the “Trans-stimulation data: PfCRT-mediated” value (PfCRT^Dd2) was 96 ± 2.1b. For the same sequence, the “Trans-stimulation: total [3H]CQ transport, non-expressing oocytes” value (non-expressing oocytes) was 3.1 ± 0.08b % of PfCRTDd2 control and the “Trans-stimulation data: total” value (non-expressing oocytes) was 98 ± 2.5b.

In the case of VHLTPEEKSAVT [VT-12], the “Trans-stimulation data: PfCRT-mediated” value (PfCRT^3D7) is reported as 97 ± 2.9b, the “Trans-stimulation data: total” value (PfCRT^3D7) is reported as 99 ± 3.5b and the “Trans-stimulation: total [3H]CQ transport, PfCRT3D7 oocytes” value (PfCRT^3D7) is reported as 3.1 ± 0.06b % of PfCRTDd2 control. The “Trans-stimulation data: total” value (PfNT1) was 100 ± 2.8b, the “Trans-stimulation: total [3H]CQ transport, PfNT1 oocytes” value (PfNT1) was 2.7 ± 0.06b % of PfCRTDd2 control and the “Trans-stimulation data: total” value (PfCRT^Ecu1110) was 101 ± 3.2b. For the same sequence, the “Trans-stimulation: total [3H]CQ transport, PfCRTEcu1110 oocytes” value (PfCRT^Ecu1110) was 33 ± 1.6b % of PfCRTDd2 control, the “Trans-stimulation data: PfCRT-mediated” value (PfCRT^Ecu1110) was 99 ± 2.9b and the “Trans-stimulation data: total” value (PfCRT^Dd2) was 100 ± 2.6b. For the same sequence, the “PfCRT-mediated [3H]CQ transport … PfCRTDd2” value (PfCRT^Dd2) was 98 ± 2.2b % of PfCRTDd2 control, the “Trans-stimulation: total [3H]CQ transport, PfCRTDd2 oocytes” value (PfCRT^Dd2) was 100 ± 2.6b % of PfCRTDd2 control and the “Trans-stimulation data: PfCRT-mediated” value (PfCRT^Dd2) was 98 ± 2.2b. For the same sequence, the “Trans-stimulation: total [3H]CQ transport, non-expressing oocytes” value (non-expressing oocytes) was 2.2 ± 0.03b % of PfCRTDd2 control.

For “NAVAHVDDMPNALSALSDLH [NH-20, additional peptide, 20 residues]”, the “Trans-stimulation data: PfCRT-mediated” value (PfCRT^3D7) was 95 ± 3.2b, the “Total [3H]CQ transport, trans-stimulation by injected solute” value (shortened to “Total … by injected solute”) (PfCRT^3D7) was 3.0 ± 0.05b % of the PfCRTDd2 control and the “Trans-stimulation data: total” value (PfCRT^3D7) was 99 ± 3.5b. For the same sequence, the “Total … by injected solute” value (PfNT1) was 3.2 ± 0.07b % of the PfCRTDd2 control, the “Trans-stimulation data: total” value (PfNT1) was 100 ± 3.6b and the “Total … by injected solute” value (PfCRT^Ecu1110) was 32 ± 1.7b % of the PfCRTDd2 control. For the same sequence, the “Trans-stimulation data: total” value (PfCRT^Ecu1110) was 100 ± 3.5b, the “Trans-stimulation data: PfCRT-mediated” value (PfCRT^Ecu1110) was 97 ± 3.2b and the “Total … by injected solute” value (PfCRT^Dd2) was 99 ± 2.8b % of the PfCRTDd2 control. The “Trans-stimulation data: total” value (PfCRT^Dd2) was 99 ± 2.8b, the “PfCRT-mediated [3H]CQ transport … PfCRTDd2” value (PfCRT^Dd2) was 97 ± 3.6b % of PfCRTDd2 control and the “Trans-stimulation data: PfCRT-mediated” value (PfCRT^Dd2) was 97 ± 3.6b. For the same sequence, the “Total … by injected solute” value (non-expressing oocytes) was 3.3 ± 0.07b % of the PfCRTDd2 control and the “Trans-stimulation data: total” value (non-expressing oocytes) was 101 ± 4.8b.

In the case of “FESFGDLSTPDAVMGNPKVK [FK-20, additional peptide, 20 residues]”, the “Trans-stimulation data: PfCRT-mediated” value (PfCRT^3D7) is reported as 98 ± 1.7b, the “Total … by injected solute” value (PfCRT^3D7) is reported as 3.1 ± 0.05b % of the PfCRTDd2 control and the “Trans-stimulation data: total” value (PfCRT^3D7) is reported as 101 ± 2.7b. For the same sequence, the “Total … by injected solute” value (PfNT1) was 4.2 ± 0.03b % of the PfCRTDd2 control, the “Trans-stimulation data: total” value (PfNT1) was 100 ± 4.2b and the “Total … by injected solute” value (PfCRT^Ecu1110) was 32 ± 1.7b % of the PfCRTDd2 control. For the same sequence, the “Trans-stimulation data: total” value (PfCRT^Ecu1110) was 99 ± 2.9b, the “Trans-stimulation data: PfCRT-mediated” value (PfCRT^Ecu1110) was 97 ± 2.0b and the “Total … by injected solute” value (PfCRT^Dd2) was 101 ± 4.7b % of the PfCRTDd2 control. The “Trans-stimulation data: total” value (PfCRT^Dd2) was 101 ± 4.7b, the “PfCRT-mediated [3H]CQ transport … PfCRTDd2” value (PfCRT^Dd2) was 98 ± 4.3b % of PfCRTDd2 control and the “Trans-stimulation data: PfCRT-mediated” value (PfCRT^Dd2) was 98 ± 4.3b. For the same sequence, the “Total … by injected solute” value (non-expressing oocytes) was 2.7 ± 0.06b % of the PfCRTDd2 control and the “Trans-stimulation data: total” value (non-expressing oocytes) was 100 ± 4.8b.
